Reference: PubChem BioAssay AID1963830 (Molecular Pharmacology Branch, DTP, NCI, 2024)

Tested on: 922993-354-T-J3-PDC complex spheroid viability
Assay: Anticancer human tumor 922993-354-T-J3-PDC patient-derived endometrial carcinoma cell line growth inhibition [POLQ]
Conditions: for IC50: curve of first compound; for viability, T/C: stronger effect = lower value
Summary of the method: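 Patient-derived tumour cells were co-cultured with HUVEC and mesenchymal stem cells as multicellular spheroids at 37 °C. They were treated with POLQ inhibitors (novobiocin, ART-558, RP6685) alone or combined with other agents. Top concentrations were at or near clinical Cmax (otherwise 10 microM; SN-38 at 1 microM), decreasing in half-log steps.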

[1] = second compound 0.0316 µM, first compound 0.0316 µM
[2] = second compound 0.0316 µM, first compound 0.1 µM
[3] = second compound 0.0316 µM, first compound 0.316 µM
[4] = second compound 0.0316 µM, first compound 1 µM
[5] = second compound 0.0316 µM, first compound 3.16 µM
[6] = second compound 0.0316 µM, first compound 10 µM
[7] = second compound 0.1 µM, first compound 0.0316 µM
[8] = second compound 0.1 µM, first compound 0.1 µM
[9] = second compound 0.1 µM, first compound 0.316 µM
[10] = second compound 0.1 µM, first compound 1 µM
[11] = second compound 0.1 µM, first compound 3.16 µM
[12] = second compound 0.1 µM, first compound 10 µM
[13] = second compound 0.316 µM, first compound 0.0316 µM
[14] = second compound 0.316 µM, first compound 0.1 µM
[15] = second compound 0.316 µM, first compound 0.316 µM
[16] = second compound 0.316 µM, first compound 1 µM
[17] = second compound 0.316 µM, first compound 3.16 µM
[18] = second compound 0.316 µM, first compound 10 µM
[19] = second compound 1 µM, first compound 0.0316 µM
[20] = second compound 1 µM, first compound 0.1 µM
[21] = second compound 1 µM, first compound 0.316 µM
[22] = second compound 1 µM, first compound 1 µM
[23] = second compound 1 µM, first compound 3.16 µM
[24] = second compound 1 µM, first compound 10 µM
[25] = second compound 3.16 µM, first compound 0.0316 µM
[26] = second compound 3.16 µM, first compound 0.1 µM
[27] = second compound 3.16 µM, first compound 0.316 µM
[28] = second compound 3.16 µM, first compound 1 µM
[29] = second compound 3.16 µM, first compound 3.16 µM
[30] = second compound 3.16 µM, first compound 10 µM
[31] = second compound 10 µM, first compound 0.0316 µM
[32] = second compound 10 µM, first compound 0.1 µM
[33] = second compound 10 µM, first compound 0.316 µM
[34] = second compound 10 µM, first compound 1 µM
[35] = second compound 10 µM, first compound 3.16 µM
[36] = second compound 10 µM, first compound 10 µM
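Also: spheroids exposed to the agents for one week.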
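For viability, T/C in this document: 100% = DMSO vehicle control wells.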

CC1COCCN1c1cc(-c2ccnn2C)c2ccnc(-c3ccn[nH]3)c2n1 (stereo unspecified) + COC1C(OC(N)=O)C(O)C(Oc2ccc3c(O)c(NC(=O)c4ccc(O)c(CC=C(C)C)c4)c(=O)oc3c2C)OC1(C)C
IC50 (second compound 0.0316 µM): 0.121 µM | IC50 (second compound 0.1 µM): 0.185 µM | IC50 (second compound 0.316 µM): 0.172 µM | IC50 (second compound 1 µM): 0.152 µM | IC50 (second compound 3.16 µM): 0.143 µM | IC50 (second compound 10 µM): 0.117 µM | viability, T/C [1]: 83.5% | viability, T/C [2]: 54.2% | viability, T/C [3]: 27.8% | viability, T/C [4]: 11.2% | viability, T/C [5]: 10.4% | viability, T/C [6]: 11.8% | viability, T/C [7]: 94.4% | viability, T/C [8]: 69.9% | viability, T/C [9]: 33.7% | viability, T/C [10]: 9.37% | viability, T/C [11]: 8.43% | viability, T/C [12]: 10.4% | viability, T/C [13]: 95.1% | viability, T/C [14]: 68.4% | viability, T/C [15]: 29.5% | viability, T/C [16]: 12.7% | viability, T/C [17]: 9.09% | viability, T/C [18]: 11.2% | viability, T/C [19]: 78.6% | viability, T/C [20]: 55.4% | viability, T/C [21]: 39.7% | viability, T/C [22]: 10.2% | viability, T/C [23]: 8.85% | viability, T/C [24]: 10.6% | viability, T/C [25]: 89.9% | viability, T/C [26]: 60% | viability, T/C [27]: 27.9% | viability, T/C [28]: 9.41% | viability, T/C [29]: 7.96% | viability, T/C [30]: 11.8% | viability, T/C [31]: 82% | viability, T/C [32]: 53.3% | viability, T/C [33]: 26.8% | viability, T/C [34]: 8.03% | viability, T/C [35]: 9.82% | viability, T/C [36]: 10.7%

CCc1cc2c(N3CCc4c(cc(Cn5ccnc5)cc4-c4cn(C)nc4C(F)(F)F)C3=O)ccnc2c(OC)n1 + COC1C(OC(N)=O)C(O)C(Oc2ccc3c(O)c(NC(=O)c4ccc(O)c(CC=C(C)C)c4)c(=O)oc3c2C)OC1(C)C
IC50 (second compound 0.0316 µM): > 10 µM | IC50 (second compound 0.1 µM): > 10 µM | IC50 (second compound 0.316 µM): > 10 µM | IC50 (second compound 1 µM): > 10 µM | IC50 (second compound 3.16 µM): > 10 µM | IC50 (second compound 10 µM): > 10 µM | viability, T/C [1]: 104% | viability, T/C [2]: 110% | viability, T/C [3]: 101% | viability, T/C [4]: 102% | viability, T/C [5]: 96.2% | viability, T/C [6]: 71.5% | viability, T/C [7]: 108% | viability, T/C [8]: 102% | viability, T/C [9]: 97.9% | viability, T/C [10]: 109% | viability, T/C [11]: 97.1% | viability, T/C [12]: 79.8% | viability, T/C [13]: 104% | viability, T/C [14]: 101% | viability, T/C [15]: 102% | viability, T/C [16]: 97.3% | viability, T/C [17]: 86.9% | viability, T/C [18]: 79.6% | viability, T/C [19]: 97.4% | viability, T/C [20]: 101% | viability, T/C [21]: 104% | viability, T/C [22]: 101% | viability, T/C [23]: 90% | viability, T/C [24]: 76.6% | viability, T/C [25]: 88.1% | viability, T/C [26]: 96.5% | viability, T/C [27]: 100% | viability, T/C [28]: 85.2% | viability, T/C [29]: 89.2% | viability, T/C [30]: 70.4% | viability, T/C [31]: 84% | viability, T/C [32]: 82.8% | viability, T/C [33]: 105% | viability, T/C [34]: 91% | viability, T/C [35]: 93.9% | viability, T/C [36]: 68.3%

COc1ccc([C@@H](O)c2cc(-c3ncnc4cc(N5CCOCC5)ccc34)c(F)cc2Cl)nn1 + COC1C(OC(N)=O)C(O)C(Oc2ccc3c(O)c(NC(=O)c4ccc(O)c(CC=C(C)C)c4)c(=O)oc3c2C)OC1(C)C
IC50 (second compound 0.0316 µM): > 10 µM | IC50 (second compound 0.1 µM): > 10 µM | IC50 (second compound 0.316 µM): > 10 µM | IC50 (second compound 1 µM): > 10 µM | IC50 (second compound 3.16 µM): > 10 µM | IC50 (second compound 10 µM): > 10 µM | viability, T/C [1]: 95.1% | viability, T/C [2]: 81.3% | viability, T/C [3]: 102% | viability, T/C [4]: 94.9% | viability, T/C [5]: 85.2% | viability, T/C [6]: 58.2% | viability, T/C [7]: 105% | viability, T/C [8]: 92.8% | viability, T/C [9]: 102% | viability, T/C [10]: 79.6% | viability, T/C [11]: 77.8% | viability, T/C [12]: 72.9% | viability, T/C [13]: 110% | viability, T/C [14]: 97% | viability, T/C [15]: 96% | viability, T/C [16]: 85.2% | viability, T/C [17]: 76.6% | viability, T/C [18]: 72.2% | viability, T/C [19]: 96% | viability, T/C [20]: 110% | viability, T/C [21]: 99.5% | viability, T/C [22]: 98.1% | viability, T/C [23]: 85.8% | viability, T/C [24]: 74.8% | viability, T/C [25]: 84.4% | viability, T/C [26]: 93.1% | viability, T/C [27]: 101% | viability, T/C [28]: 87.9% | viability, T/C [29]: 93.6% | viability, T/C [30]: 69.2% | viability, T/C [31]: 86.1% | viability, T/C [32]: 90% | viability, T/C [33]: 107% | viability, T/C [34]: 83.8% | viability, T/C [35]: 88.6% | viability, T/C [36]: 69.8%
